Experimental data reported in ChEMBL document CHEMBL3046001, “4-Thiazolidinone and 1-thia-3,4,9-triaza fluorene conjugates: synthesis, characterization and antimicrobial screening” (2013).
≈ marks a conversion by molar mass, not a printed value. Calls of active or inactive are those of the source. The calls are words filed in the database; no cut-off is given here.

Tests used:
Bacillus pumilus [1] = experiment: Antibacterial activity against Bacillus pumilus MTCC 1456 assessed as growth inhibition at 250 ug/mL after 48 hr by agar diffusion method; type: functional; details: MTCC 1456, 48 h, read-out: DIZ
Pseudomonas aeruginosa [2] = experiment: Antibacterial activity against Pseudomonas aeruginosa MTCC 424 assessed as growth inhibition at 100 ug/mL after 48 hr by agar diffusion method; type: functional; details: MTCC 424, 48 h, read-out: DIZ
Pseudomonas fluorescens [3] = experiment: Antibacterial activity against Pseudomonas fluorescens MTCC 2421 assessed as growth inhibition at 1250 ug/mL after 48 hr by agar diffusion method; type: functional; details: MTCC 2421, 48 h, read-out: DIZ
Escherichia coli [4] = experiment: Antibacterial activity against Escherichia coli MTCC 1573 assessed as growth inhibition at 500 ug/mL after 48 hr by agar diffusion method; type: functional; details: MTCC 1573, 48 h, read-out: DIZ
Escherichia coli [5] = experiment: Antibacterial activity against Escherichia coli MTCC 1573 assessed as growth inhibition at 100 ug/mL after 48 hr by agar diffusion method; type: functional; details: MTCC 1573, 48 h, read-out: DIZ
Bacillus pumilus [6] = experiment: Antibacterial activity against Bacillus pumilus MTCC 1456 assessed as growth inhibition at 1000 ug/mL after 48 hr by agar diffusion method; type: functional; details: MTCC 1456, 48 h, read-out: DIZ
Bacillus subtilis [7] = experiment: Antibacterial activity against Bacillus subtilis MTCC 441 assessed as growth inhibition at 250 ug/mL after 48 hr by agar diffusion method; type: functional; details: MTCC 441, 48 h, read-out: DIZ
Bacillus subtilis [8] = experiment: Antibacterial activity against Bacillus subtilis MTCC 441 assessed as growth inhibition at 100 ug/mL after 48 hr by agar diffusion method; type: functional
Bacillus pumilus [9] = experiment: Antibacterial activity against Bacillus pumilus MTCC 1456 assessed as growth inhibition at 100 ug/mL after 48 hr by agar diffusion method; type: functional; details: MTCC 1456, 48 h, read-out: DIZ
Escherichia coli [10] = experiment: Antibacterial activity against Escherichia coli MTCC 1573 assessed as growth inhibition at 1000 ug/mL after 48 hr by agar diffusion method; type: functional; details: MTCC 1573, 48 h, read-out: DIZ
Pseudomonas aeruginosa [11] = experiment: Antibacterial activity against Pseudomonas aeruginosa MTCC 424 assessed as growth inhibition after 24 hr by tube dilution method; type: functional; details: MTCC 424, 24 h
Micrococcus luteus [12] = experiment: Antibacterial activity against Micrococcus luteus MTCC 1538 assessed as growth inhibition at 750 ug/mL after 48 hr by agar diffusion method; type: functional; details: MTCC 1538, 48 h, read-out: DIZ
Aspergillus niger [13] = experiment: Antifungal activity against Aspergillus niger MTCC 2546 assessed as growth inhibition at 1000 ug/mL after 48 hr by agar diffusion method; type: functional; details: MTCC 2546, 48 h, read-out: DIZ
Staphylococcus aureus [14] = experiment: Antibacterial activity against Staphylococcus aureus MTCC 1430 assessed as growth inhibition after 24 hr by tube dilution method; type: functional; details: MTCC 1430, 24 h
Escherichia coli [15] = experiment: Antibacterial activity against Escherichia coli MTCC 1573 assessed as growth inhibition at 250 ug/mL after 48 hr by agar diffusion method; type: functional; details: MTCC 1573, 48 h, read-out: DIZ
Aspergillus niger [16] = experiment: Antifungal activity against Aspergillus niger MTCC 2546 assessed as growth inhibition at 500 ug/mL after 48 hr by agar diffusion method; type: functional; details: MTCC 2546, 48 h, read-out: DIZ
Pseudomonas fluorescens [17] = experiment: Antibacterial activity against Pseudomonas fluorescens MTCC 2421 assessed as growth inhibition at 500 ug/mL after 48 hr by agar diffusion method; type: functional; details: MTCC 2421, 48 h, read-out: DIZ
Aspergillus niger [18] = experiment: Antifungal activity against Aspergillus niger MTCC 2546 assessed as growth inhibition at 750 ug/mL after 48 hr by agar diffusion method; type: functional; details: MTCC 2546, 48 h, read-out: DIZ
Penicillium chrysogenum [19] = experiment: Antifungal activity against Penicillium chrysogenum MTCC 161 assessed as growth inhibition at 1250 ug/mL after 48 hr by agar diffusion method; type: functional; details: MTCC 161, 48 h, read-out: DIZ
Pseudomonas aeruginosa [20] = experiment: Antibacterial activity against Pseudomonas aeruginosa MTCC 424 assessed as growth inhibition at 750 ug/mL after 48 hr by agar diffusion method; type: functional; details: MTCC 424, 48 h, read-out: DIZ
Pseudomonas fluorescens [21] = experiment: Antibacterial activity against Pseudomonas fluorescens MTCC 2421 assessed as growth inhibition after 24 hr by tube dilution method; type: functional; details: MTCC 2421, 24 h
Escherichia coli [22] = experiment: Antibacterial activity against Escherichia coli MTCC 1573 assessed as growth inhibition after 24 hr by tube dilution method; type: functional; details: MTCC 1573, 24 h
Bacillus pumilus [23] = experiment: Antibacterial activity against Bacillus pumilus MTCC 1456 assessed as growth inhibition after 24 hr by tube dilution method; type: functional; details: MTCC 1456, 24 h
Staphylococcus aureus [24] = experiment: Antibacterial activity against Staphylococcus aureus MTCC 1430 assessed as growth inhibition at 500 ug/mL after 48 hr by agar diffusion method; type: functional; details: MTCC 1430, 48 h, read-out: DIZ
Aspergillus niger [25] = experiment: Antifungal activity against Aspergillus niger MTCC 2546 assessed as growth inhibition after 24 hr by tube dilution method; type: functional; details: MTCC 2546, 24 h
Bacillus subtilis [26] = experiment: Antibacterial activity against Bacillus subtilis MTCC 441 assessed as growth inhibition at 1000 ug/mL after 48 hr by agar diffusion method; type: functional; details: MTCC 441, 48 h, read-out: DIZ
Pseudomonas fluorescens [27] = experiment: Antibacterial activity against Pseudomonas fluorescens MTCC 2421 assessed as growth inhibition at 100 ug/mL after 48 hr by agar diffusion method; type: functional; details: MTCC 2421, 48 h, read-out: DIZ
Bacillus pumilus [28] = experiment: Antibacterial activity against Bacillus pumilus MTCC 1456 assessed as growth inhibition at 1250 ug/mL after 48 hr by agar diffusion method; type: functional; details: MTCC 1456, 48 h, read-out: DIZ
Penicillium chrysogenum [29] = experiment: Antifungal activity against Penicillium chrysogenum MTCC 161 assessed as growth inhibition after 24 hr by tube dilution method; type: functional; details: MTCC 161, 24 h
Penicillium chrysogenum [30] = experiment: Antifungal activity against Penicillium chrysogenum MTCC 161 assessed as growth inhibition at 100 ug/mL after 48 hr by agar diffusion method; type: functional, organism-based
Aspergillus niger [31] = experiment: Antifungal activity against Aspergillus niger MTCC 2546 assessed as growth inhibition at 250 ug/mL after 48 hr by agar diffusion method; type: functional; details: MTCC 2546, 48 h, read-out: DIZ
Micrococcus luteus [32] = experiment: Antibacterial activity against Micrococcus luteus MTCC 1538 assessed as growth inhibition at 500 ug/mL after 48 hr by agar diffusion method; type: functional; details: MTCC 1538, 48 h, read-out: DIZ
Micrococcus luteus [33] = experiment: Antibacterial activity against Micrococcus luteus MTCC 1538 assessed as growth inhibition at 250 ug/mL after 48 hr by agar diffusion method; type: functional
Micrococcus luteus [34] = experiment: Antibacterial activity against Micrococcus luteus MTCC 1538 assessed as growth inhibition at 1250 ug/mL after 48 hr by agar diffusion method; type: functional; details: MTCC 1538, 48 h, read-out: DIZ
Escherichia coli [35] = experiment: Antibacterial activity against Escherichia coli MTCC 1573 assessed as growth inhibition at 750 ug/mL after 48 hr by agar diffusion method; type: functional; details: MTCC 1573, 48 h, read-out: DIZ
Bacillus subtilis [36] = experiment: Antibacterial activity against Bacillus subtilis MTCC 441 assessed as growth inhibition at 1250 ug/mL after 48 hr by agar diffusion method; type: functional; details: MTCC 441, 48 h, read-out: DIZ
Pseudomonas aeruginosa [37] = experiment: Antibacterial activity against Pseudomonas aeruginosa MTCC 424 assessed as growth inhibition at 250 ug/mL after 48 hr by agar diffusion method; type: functional; details: MTCC 424, 48 h, read-out: DIZ
Micrococcus luteus [38] = experiment: Antibacterial activity against Micrococcus luteus MTCC 1538 assessed as growth inhibition after 24 hr by tube dilution method; type: functional; details: MTCC 1538, 24 h
Bacillus pumilus [39] = experiment: Antibacterial activity against Bacillus pumilus MTCC 1456 assessed as growth inhibition at 500 ug/mL after 48 hr by agar diffusion method; type: functional; details: MTCC 1456, 48 h, read-out: DIZ

Q: For O=C1CSC(c2cccc3ccccc23)N1c1nnc2c3cc(Cl)ccc3nc-2s1 (centres undefined), which zone of inhibition at 250 µg/mL (Bacillus pumilus [1]) is on record?
A: 10 mm

Q: What about the zone of inhibition at 100 µg/mL (Pseudomonas aeruginosa [2]) of the same compound?
A: 8 mm

Q: And the zone of inhibition at 1250 µg/mL (Pseudomonas fluorescens [3])?
A: 24 mm

Q: What about the zone of inhibition at 500 µg/mL (Escherichia coli [4]) of the same compound?
A: 13 mm

Q: What about the zone of inhibition at 100 µg/mL (Escherichia coli [5]) of the same compound?
A: 7 mm

Q: And the zone of inhibition at 1000 µg/mL (Bacillus pumilus [6])?
A: 17 mm

Q: And the zone of inhibition at 250 µg/mL (Bacillus subtilis [7])?
A: 7 mm

Q: And the “growth inhibition (GI)” value (Bacillus subtilis [8])?
A: inactive

Q: And the zone of inhibition at 100 µg/mL (Bacillus pumilus [9])?
A: 8 mm

Q: And the zone of inhibition at 1000 µg/mL (Escherichia coli [10])?
A: 17 mm

Q: What about the MIC (Pseudomonas aeruginosa [11]) of the same compound?
A: 40 µg/mL (≈ 89.1 µM)

Q: What about the zone of inhibition at 750 µg/mL (Micrococcus luteus [12]) of the same compound?
A: 12 mm

Q: What about the zone of inhibition at 1000 µg/mL (Aspergillus niger [13]) of the same compound?
A: 15 mm

Q: What about the MIC (Staphylococcus aureus [14]) of the same compound?
A: 150 µg/mL (≈ 334 µM)

Q: And the zone of inhibition at 250 µg/mL (Escherichia coli [15])?
A: 10 mm

Q: And the zone of inhibition at 500 µg/mL (Aspergillus niger [16])?
A: 11 mm

Q: And the zone of inhibition at 500 µg/mL (Pseudomonas fluorescens [17])?
A: 12 mm

Q: What about the zone of inhibition at 750 µg/mL (Aspergillus niger [18]) of the same compound?
A: 13 mm

Q: What about the zone of inhibition at 1250 µg/mL (Penicillium chrysogenum [19]) of the same compound?
A: 18 mm

Q: And the zone of inhibition at 750 µg/mL (Pseudomonas aeruginosa [20])?
A: 13 mm

Q: And the MIC (Pseudomonas fluorescens [21])?
A: 40 µg/mL (≈ 89.1 µM)

Q: And the MIC (Escherichia coli [22])?
A: 30 µg/mL (≈ 66.8 µM)

Q: And the MIC (Bacillus pumilus [23])?
A: 40 µg/mL (≈ 89.1 µM)

Q: And the zone of inhibition at 500 µg/mL (Staphylococcus aureus [24])?
A: 6 mm

Q: And the MIC (Aspergillus niger [25])?
A: 150 µg/mL (≈ 334 µM)

Q: And the zone of inhibition at 1000 µg/mL (Bacillus subtilis [26])?
A: 18 mm

Q: And the zone of inhibition at 100 µg/mL (Pseudomonas fluorescens [27])?
A: 8 mm

Q: What about the zone of inhibition at 1250 µg/mL (Bacillus pumilus [28]) of the same compound?
A: 20 mm

Q: And the MIC (Penicillium chrysogenum [29])?
A: 150 µg/mL (≈ 334 µM)

Q: And the “growth inhibition (GI)” value (Penicillium chrysogenum [30])?
A: inactive

Q: And the zone of inhibition at 250 µg/mL (Aspergillus niger [31])?
A: 8 mm

Q: And the zone of inhibition at 500 µg/mL (Micrococcus luteus [32])?
A: 8 mm

Q: And the “growth inhibition (GI)” value (Micrococcus luteus [33])?
A: inactive

Q: What about the zone of inhibition at 1250 µg/mL (Micrococcus luteus [34]) of the same compound?
A: 20 mm

Q: And the zone of inhibition at 750 µg/mL (Escherichia coli [35])?
A: 15 mm

Q: And the zone of inhibition at 1250 µg/mL (Bacillus subtilis [36])?
A: 20 mm

Q: And the zone of inhibition at 250 µg/mL (Pseudomonas aeruginosa [37])?
A: 10 mm

Q: What about the MIC (Micrococcus luteus [38]) of the same compound?
A: 150 µg/mL (≈ 334 µM)

Q: And the zone of inhibition at 500 µg/mL (Bacillus pumilus [39])?
A: 13 mm
